Measured values taken from patent US12129279B2, “Antimicrobial peptides and use of the same for treating microbial infections” (TZU CHI UNIVERSITY, priority 2022, dated 2024).
Residues, ends and D or L forms follow the SMILES beside them. No end group written: not given here.

Columns and labels:
Assay type in all cases: cell-based
[1] = system: MDRAB (multidrug-resistant Acinetobacter baumannii); settings: MDRAB (multidrug-resistant, 2 h)
Method: (§1) The antimicrobial activities of dK1, dK2, dK3, dK4 and dK5 were determined by bactericidal assays on laboratory strains of MRSA (methicillin-resistant Staphylococcus aureus) and MDRAB (multidrug-resistant Acinetobacter baumannii).
(§2) The bacteria were inoculated in Luria broth (LB) solid medium (BioShop Canada Inc., Ontario, Canada) (Focus Bioscience, Murrarrie, Australia). Single colonies were collected and inoculated in 8 mL of liquid medium, and the cultures were incubated overnight at 37° C., 200 rpm. On the next day, the bacterial cultures were centrifuged with a centrifuger (KUBOTA2800, KUBOTA, Osakashi, Japan) at 2500 rpm for 5 minutes at room temperature, and the supernatants were discarded. The pellets were mixed and suspended with 1×PBS (phosphate-buffered saline, PBS, pH 7.4) (PROTECH, Taipei, Taiwan). The step was repeated twice to wash the bacterial cells. After the washing step, the bacterial cells were then re-suspended in 1×PBS, and the concentrations of bacterial cells were adjusted to 1×10^7 CFU/mL.
(§3) In the bactericidal assay, 2700 μL of 1× PBS were mixed with 300 μL 1×10^7 CFU/mL bacteria suspension mentioned as negative control, and each of the solutions of dK1 to dK5 at different concentrations was mixed with 300 μL 1×10^7 CFU/mL bacteria suspension and 2700 μL of 1× PBS. The mixtures were incubated at 37° C., 200 rpm for 2 hours. After incubation, 100 μL of each of the control group samples and the experimental group samples were collected and put in Eppendorf centrifuge tubes, and followed by 10-fold serial dilution with 900 μL of 1× PBS. After the serial dilution, 100 μL of the sample from each group was inoculated on the LB solid medium. The experiments were carried out in triplicate for each group, and the LB solid media with samples were cultured at 37° C. for at least 18 hours. After overnight incubation at 37° C., bacterial colonies were counted. Bacterial survival rates of each group were determined as follows. % survival rate=[(Colonies formed from peptide-treated sample)/(Colonies formed from negative control)]×100%

[2] = system: MRSA (methicillin-resistant Staphylococcus aureus); settings: 2 h
Method: as §1, §2, §3

in vitro = settings: human
Method: For measuring the cytotoxicity of the antimicrobial peptides dK1, dK2 and dK3, a colorimetric 3-bis-(2-methoxy-4-nitro-5-sulfophenyl)-2H-tetrazolium-5-carboxanilide (XTT) dye reduction assay was employed. The cytotoxicity of the antimicrobial peptides of the invention were tested on Huh-7 and HeLa cells. The culture medium for Huh-7 is Dulbecco's modified eagle medium, DMEM (Gibco™, NY, USA) containing 10% fetal bovine serum (FBS) (Gibco™, NY, USA) 1% non-essential amino acid solution (NEAA) (Biological Industries, Beit HaEmek, Israel) and 1% streptomycin-penicillin solution (Gibco™, NY, USA). The culture medium for HeLa cells is Minimum Essential Medium (MEM) (Gibco™, NY, USA) containing 10% FBS (Gibco™, NY, USA), 1% sodium pyruvate (Gibco™, NY, USA), 1% NEAA (Biological Industries, Beit HaEmek, Israel) and 1% streptomycin-penicillin (Gibco™, NY, USA). […] The absorbance of the samples was measured at the 4th hour, and cell viability calculated to evaluate the cytotoxicity of the antimicrobial peptides. The absorbance of the samples was measured with an ELISA reader (EPOCH™, BioTek instruments, Inc., Winooski, USA) at a wavelength of 475 nm. The absorbance value of the positive control group was regarded as 0% cell viability, and the absorbance value of the negative control group was regarded as 100% cell viability. […]

| Molecule | IC50 [1] | IC50 [2] | MBC (minimum bactericidal concentration) against MRSA [2] | MBC (minimum bactericidal concentration) against MDRAB [1] | cytotoxicity at 4 h, 2 μM (in vitro) |
| --- | --- | --- | --- | --- | --- |
| CC(C)C[C@H](NC(=O)[C@H](CCCCN)NC(=O)[C@@H]1CCCN1C(=O)CNC(=O)[C@H](Cc1ccccc1)NC(=O)[C@H](CCCCN)NC(=O)[C@H](C)NC(=O)[C@@H]1CCCN1C(=O)[C@H](Cc1ccccc1)NC(=O)[C@H](CO)NC(=O)[C@H](C)NC(=O)[C@@H]1CCCN1C(=O)[C@H](CC(C)C)NC(=O)[C@@H](N)Cc1ccccc1)C(=O)N[C@@H](Cc1ccccc1)C(=O)N[C@@H](CS)C(=O)N[C@@H](CC(C)C)C(=O)N[C@H](C(=O)N[C@H](C(=O)N[C@@H](CCCCN)C(=O)N[C@@H](CCCCN)C(=O)N[C@@H](CS)C(=O)O)[C@@H](C)O)C(C)C [dK4] (H-FLPASFPAKFGPKLFCLVTKKC-OH; N-terminus and C-terminus assumed) | 8000 to 10000 nM |  |  |  |  |
| FLAIPSKPLKVAKPLGFALIIL [dK5] | 20000 to 25000 nM | 10000 to 15000 nM | 30 to 40 µM |  |  |
| IVRRIWRAWARRVRLVARIPAV [dK1] | ~167 nM | ~195 nM | 0.39 to 0.78 µM | 0.667 to 1.33 µM |  |
| RLIAAWRAVIRARVRARRAPIF [dK2] | 200 to 250 nM | ~390 nM | 1.56 to 3.12 µM | 0.5 to 0.6 µM |  |
| RPFIVRAWRRAVARRARAILPI [dK3] | 195 to 390 nM | 1560 to 3120 nM | 3.12 to 4.5 µM | 0.78 to 1.56 µM | 50% |
